Results taken from the supplement of paper PMC10307832.

Tests used:
Assay in all cases: relative viability (nuclei count vs DMSO), 5 days (fraction); higher = more cells survive
MK-8033 + Trametinib = compound: Cn1cc(-c2cnc3ccc4ccc(CS(=O)(=O)NCc5ccccn5)cc4c(=O)c3c2)cn1 [MK-8033] + CC(=O)Nc1cccc(-n2c(=O)n(C3CC3)c(=O)c3c(Nc4ccc(I)cc4F)n(C)c(=O)c(C)c32)c1 [Trametinib] (partner 0.02 µM)
How it was run: (§1)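 One day after seeding in 1536-well plates, lung cancer cell lines were dosed by pin tool. Dosing was either single-drug or a fixed anchor-drug dose plus five library-drug doses (not always all listed) in √10 steps. After 5 days, nuclei were stained in one fix-and-stain step and counted on 4× images, and relative viability is the nuclei count of treated wells over that of vehicle wells, given as the median of duplicate plates.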

RU-SKI 43 + AZD7762 = compound: CC[C@@H](C)CNCC(=O)N1CCC2=C([C@@H]1COC3=CC=CC(=C3)C)C=CS2 [RU-SKI 43] + NC(=O)Nc1cc(-c2cccc(F)c2)sc1C(=O)N[C@H]1CCCNC1 [AZD7762] (partner 0.2 µM)
How it was run: as §1

RU-SKI 43 + Lapatinib = compound: CC[C@@H](C)CNCC(=O)N1CCC2=C([C@@H]1COC3=CC=CC(=C3)C)C=CS2 [RU-SKI 43] + CS(=O)(=O)CCNCc1ccc(-c2ccc3ncnc(Nc4ccc(OCc5cccc(F)c5)c(Cl)c4)c3c2)o1 [Lapatinib] (partner 2 µM)
How it was run: as §1

MK-8033 + Olaparib = compound: Cn1cc(-c2cnc3ccc4ccc(CS(=O)(=O)NCc5ccccn5)cc4c(=O)c3c2)cn1 [MK-8033] + O=C(c1cc(Cc2n[nH]c(=O)c3ccccc23)ccc1F)N1CCN(C(=O)C2CC2)CC1 [Olaparib] (partner 8 µM)
How it was run: as §1

| Cell Line | relative viability (MK-8033 + Trametinib; first compound 0.02 µM) | relative viability (MK-8033 + Trametinib; first compound 0.06325 µM) | relative viability (MK-8033 + Trametinib; first compound 0.2 µM) | relative viability (MK-8033 + Trametinib; first compound 0.6325 µM) | relative viability (MK-8033 + Trametinib; first compound 2 µM) | relative viability (RU-SKI 43 + AZD7762; first compound 0.1 µM) | relative viability (RU-SKI 43 + AZD7762; first compound 0.3162 µM) | relative viability (RU-SKI 43 + AZD7762; first compound 1 µM) | relative viability (RU-SKI 43 + AZD7762; first compound 3.162 µM) | relative viability (RU-SKI 43 + AZD7762; first compound 10 µM) | relative viability (RU-SKI 43 + Lapatinib; first compound 0.1 µM) | relative viability (RU-SKI 43 + Lapatinib; first compound 0.3162 µM) | relative viability (RU-SKI 43 + Lapatinib; first compound 1 µM) | relative viability (RU-SKI 43 + Lapatinib; first compound 3.162 µM) | relative viability (RU-SKI 43 + Lapatinib; first compound 10 µM) | relative viability (MK-8033 + Olaparib; first compound 0.02 µM) | relative viability (MK-8033 + Olaparib; first compound 0.06325 µM) | relative viability (MK-8033 + Olaparib; first compound 0.2 µM) | relative viability (MK-8033 + Olaparib; first compound 0.6325 µM) | relative viability (MK-8033 + Olaparib; first compound 2 µM) |
| --- | --- | --- | --- | --- | --- | --- | --- | --- | --- | --- | --- | --- | --- | --- | --- | --- | --- | --- | --- | --- |
| NCI-H1755 | 0.804 | 0.767 | 0.74 | 0.702 | 0.732 | 0.42 | 0.504 | 0.46 | 0.411 | 0.359 | 1.03 | 1.4 | 1.08 | 0.995 | 1.01 | 0.899 | 0.916 | 0.863 | 0.846 | 0.735 |
| NCI-H1792 | 0.536 | 0.33 | 0.352 | 0.437 | 0.36 | 0.623 | 0.753 | 0.656 | 0.712 | 0.686 | 0.937 | 1.14 | 1.42 | 0.88 | 0.973 | 0.451 | 0.448 | 0.337 | 0.351 | 0.3 |
| NCI-H1793 | 0.425 | – | 0.362 | 0.447 | 0.361 | 0.56 | 0.719 | 0.641 | 0.447 | 0.29 | 0.69 | 0.644 | 0.594 | 0.673 | 0.697 | 0.863 | – | 0.688 | 0.894 | 0.94 |
| NCI-H1915 | 0.276 | 0.319 | 0.274 | 0.289 | 0.306 | 0.699 | 0.833 | 0.702 | 0.672 | 0.688 | 1.02 | 1.22 | 1.13 | 1.03 | 0.993 | 0.243 | 0.241 | 0.267 | 0.252 | 0.259 |
| NCI-H1944 | 0.407 | 0.418 | 0.395 | 0.391 | 0.398 | 0.591 | 0.579 | 0.447 | 0.589 | 0.502 | 0.825 | 0.793 | 0.864 | 0.86 | 0.817 | 0.402 | 0.365 | 0.39 | 0.39 | 0.415 |
| NCI-H1975 | 0.357 | 0.301 | 0.279 | 0.239 | 0.405 | 0.763 | 0.748 | 0.97 | 0.671 | 0.803 | 0.968 | 1.32 | 0.867 | 0.853 | 1.02 | 0.721 | 0.757 | 0.789 | 0.77 | 0.78 |
| NCI-H1993 | 0.55 | 0.506 | 0.427 | 0.469 | 0.456 | 0.677 | 0.775 | 0.807 | 0.712 | 0.688 | 0.739 | 0.859 | 0.717 | 0.822 | 1.8 | 0.996 | 1.01 | 0.705 | 0.946 | 0.669 |
| NCI-H2085 | 0.542 | 0.546 | 0.525 | 0.554 | 0.574 | 1.02 | 0.856 | 0.948 | 1.08 | 1.02 | 0.672 | 0.719 | 0.836 | 0.674 | 0.686 | 0.771 | 0.788 | 0.766 | 0.794 | 0.73 |
| NCI-H2087 | 0.213 | 0.147 | 0.187 | 0.214 | 0.254 | 1.33 | 1.65 | 1.3 | 1.36 | 1.31 | 0.916 | 1.12 | 0.947 | 1.09 | 0.804 | 0.593 | 0.57 | 0.535 | 0.492 | 0.622 |
| NCI-H2126 | 0.542 | 0.554 | 0.525 | 0.585 | 0.569 | 1.05 | 1.17 | 1.09 | 1.05 | 1.04 | 0.797 | 0.63 | 0.823 | 0.779 | 0.766 | 0.978 | 0.921 | 0.806 | 0.903 | 0.875 |
| NCI-H2170 | 0.838 | 0.92 | 0.844 | 0.922 | 0.824 | 0.846 | 1.07 | 0.959 | 0.866 | 0.882 | 0.259 | 0.241 | 0.292 | 0.273 | 0.256 | 0.602 | 0.539 | 0.648 | 0.59 | 0.536 |
| NCI-H2347 | 0.326 | 0.344 | 0.295 | 0.287 | 0.281 | 0.732 | 0.74 | 0.812 | 0.614 | 0.642 | 0.951 | 0.829 | 1.08 | 1.04 | 0.726 | 0.564 | 0.573 | 0.535 | 0.617 | 0.575 |
| NCI-H2405 | 0.601 | 0.619 | 0.496 | 0.603 | 0.667 | 0.801 | 0.83 | 0.876 | 0.84 | 0.452 | 1.01 | 0.964 | 1.03 | 1.04 | 0.956 | 0.832 | 0.881 | 0.868 | 0.913 | 0.876 |
| NCI-H3122 | 0.262 | 0.247 | 0.21 | 0.238 | 0.3 | 0.957 | 1.27 | 1.01 | 1.15 | 0.95 | 1.06 | 1.03 | 1.03 | 1.09 | 0.979 | 0.576 | 0.662 | 0.618 | 0.572 | 0.589 |
| PC-3 [JPC-3] | 0.599 | – | 0.68 | 0.708 | 0.666 | 0.885 | 0.671 | 0.828 | 0.834 | 0.336 | 0.461 | 0.344 | 0.454 | 0.47 | 0.459 | 1.08 | – | 1.04 | 1.16 | 1.09 |
| PC-14 | 0.723 | 0.604 | 0.649 | 0.774 | 0.654 | 0.392 | 0.377 | 0.441 | 0.32 | 0.379 | 0.362 | 0.362 | 0.414 | 0.335 | 0.239 | 0.249 | 0.27 | 0.299 | 0.321 | 0.271 |
| RERF-LC-KJ | 0.818 | 0.843 | 0.812 | 0.828 | 0.812 | 0.97 | 1.01 | 1.21 | 1.17 | 1.04 | 0.872 | 0.892 | 0.853 | 0.959 | 0.825 | 1.03 | 0.973 | 0.884 | 0.899 | 0.882 |
